Data on three compounds can be found in patent publication US4728729A, “Cyanoimidazole nucleoside derivatives” (Sumitomo Pharmaceuticals Co., Ltd., priority 1984, dated 1988).

One assay concerns anti-SRBC PFC response. Description: Immunosuppressive activity: anti-SRBC PFC response in vivo (Cunningham method). More on the design: species or system mouse. The conditions noted are these: for Suppression / PFC × 10^-3 / spleen: day 0 to 3; for Suppression: PFC measured day 4; for PFC × 10^-3 / spleen: measured day 4, AV. ± SD., n = 4, control 363 ± 51. The protocol: The immunosuppressive activity of the compound of the present invention was assayed in comparison with mizoribine which has been used in immunosuppressive therapy. After a sheep red blood cell preparation (SRBC) was injected in mice, the compounds were administered orally once a day on day 0 to 3 and the plaque forming cell (PFC) number was measured on day 4 by Cunningham method. [Cunningham A. J. et al. Immunol. 14, 599(1968)].

The conditions of assay [1]: J. of Antibiotics, vol. 27 p. 775 (1974); Canada Pat. No. 1,078,736; cited from earlier work.
Assay [2] has as its system SCaBER (bladder squamous carcinoma). Nature of the assay: In vitro growth inhibition assay, SCaBER. Type of assay: cell-based. Conditions: Homo sapiens, monolayer culture, 72 to 120 hr. The protocol: (§1) In vitro growth inhibition activities were determined according to the method described in "Cancer Research", Vol. 43, p. 5851-5856 (1983).
(§2) In the case of monolayer culture (solid tumor cell lines), cells were cultured for 24 hr without the compound in order to allow cells to attach on the culture plate. Then the culture medium was changed to a fresh medium containing various concentrations of the compound. Cells were further cultured for 72 hr to 120 hr, and then removed from the culture plate by 0.125% trypsin and 0.05% EDTA solution.
(§3) Cell numbers were counted with a Coulter Counter and IC50 s were calculated.

The subject of assay [3] is QG-56 (lung squamous carcinoma). Nature of the assay: In vitro growth inhibition assay, QG-56. Type of assay: cell-based. Conditions: Homo sapiens; QG-56, monolayer culture, 72 to 120 hr. The protocol: as §1, §2, §3
Another assay relates to solid Ehrlich carcinoma. Nature of the assay: Antitumor effect on solid Ehrlich carcinoma. Conditions: Days 1,5,9, tumors weighed day 15. Type of assay: in vivo, mouse (ICR/Jcl). The protocol: The antitumor activities of the compounds of the present invention were estimated according to the method described in "Cancer Research" vol. 43, p. 5851 (1983).
ICR/Jcl male mice, 5 weks old, […], […]. Each test group was composed of 6 mice. Three million cells of Ehrlich carcinoma were injected in the hind leg. The drug was administered orally at days 1, 5, and 9. After sacrificing the mice at day 15, tumors were removed and weighed. The tumor growth inhibitory ratio was calculated according to the following formula. [formula]

Assay [4] has as its system CCRF-HSB-2 (acute lymphoblastic leukemia). Description: In vitro growth inhibition assay, CCRF-HSB-2. The format is cell-based. Conditions: Homo sapiens; CCRF-HSB-2, suspension culture, 72 hr. The protocol:
as §1
(§4) In the case of suspension culture (lymphoma and leukemia cell lines), cells were cultured with various concentrations of the compound for 72 hr.
as §3

The subject of another assay is P3HR1 (Burkitt lymphoma). Description: In vitro growth inhibition assay, P3HR1. Type of assay: cell-based. Conditions: Homo sapiens, P3HR-1; P3HR1, suspension culture, 72 hr. On the procedure: as §1, §4, §3
For assay [5], the system named is Hela (uterine cervix cancer). Nature of the assay: In vitro growth inhibition assay, Hela. Type of assay: cell-based. Conditions: Homo sapiens, monolayer culture, 72 to 120 hr. On the procedure:
as §1, §2, §3

Assay [6] has as its system HL-60 (promyelocytic leukemia). Description: In vitro growth inhibition assay, HL-60. The conditions noted are these: Homo sapiens; HL-60, suspension culture, 72 hr. Type of assay: cell-based. The protocol:
as §1, §4, §3

The subject of assay [7] is KU-2 (renal cell carcinoma). Nature of the assay: In vitro growth inhibition assay, KU-2. The format is cell-based. Conditions: Homo sapiens; KU-2, monolayer culture, 72 to 120 hr. On the procedure: as §1, §2, §3
Assay [8] relates to QG-90 (lung small cell carcinoma). Description: In vitro growth inhibition assay, QG-90. The conditions noted are these: Homo sapiens; QG-90, monolayer culture, 72 to 120 hr. Type of assay: cell-based. On the procedure: as §1, §2, §3
Assay [9] concerns various types of human tumor cell lines. Description: In vitro growth inhibition on various human tumor cell lines (summary). The format is cell-based. The protocol: as §1, §4, §2, §3
The subject of another assay is A549 (lung cancer). Nature of the assay: In vitro growth inhibition assay, A549. The format is cell-based. The conditions noted are these: Homo sapiens; A549, monolayer culture, 72 to 120 hr. On the procedure:
as §1, §2, §3

The next assay relates to DU 145 (prostate cancer). Nature of the assay: In vitro growth inhibition assay, DU 145. Type of assay: cell-based. The conditions noted are these: Homo sapiens; DU 145, monolayer culture, 72 to 120 hr. On the procedure: as §1, §2, §3

In the case of `NC(=O)c1ncn([C@@H]2O[C@H](CO)[C@@H](O)[C@H]2O)c1O` [Mizoribine, 4-carbamoyl-1-β-D-ribofuranosylimidazolium-5-olate, reference compound], the Suppression is 0% with anti-SRBC PFC response (5 mg/day p.o.), 69% in the assay with anti-SRBC PFC response (25 mg/day p.o.) and 89% in the assay on anti-SRBC PFC response (50 mg/day p.o.). The “PFC × 10^-3 / spleen” value in the assay on anti-SRBC PFC response (5 mg/day p.o.) is on record as 496 ± 140 PFC × 10^-3 / spleen; with anti-SRBC PFC response (25 mg/day p.o.), 113 ± 53 PFC × 10^-3 / spleen; with anti-SRBC PFC response (50 mg/day p.o.), 39 ± 43 PFC × 10^-3 / spleen. Further, the “immunosuppressive and antitumor activities, in words” value in assay [1] is “immunosuppressive and antitumor activities”.

As for `N#Cc1ncn([C@@H]2O[C@H](CO)[C@@H](O)[C@H]2O)c1O` [4-cyano-1-β-D-ribofuranosylimidazolium-5-olate], the IC50 – broadly, the concentration at which inhibition is half-maximal – was 5 µM in [2]; 2.8 µM in [3]; under 3 µM in [4]; 4.6 µM in the assay on P3HR1 (Burkitt lymphoma); 4.7 µM in [5]; 0.87 µM in assay [6]. Moreover, the 50% inhibitory concentration (IC50) turned out to be 1 µM in [7], 6.7 µM in [8], 8.5 µM in the assay with A549 (lung cancer) and 4.4 µM with DU 145 (prostate cancer). Moreover, the “Inhibition ratio (tumor growth)” value in the assay on solid Ehrlich carcinoma (10 mg/kg/day po) was 40.1%; in the assay with solid Ehrlich carcinoma (20 mg/kg/day po), 73.6%; in the assay with solid Ehrlich carcinoma (40 mg/kg/day po), 99.8%; in the assay on solid Ehrlich carcinoma (80 mg/kg/day po), 99.8%. For the same compound, the Suppression is given as 0% in the assay with anti-SRBC PFC response (5 mg/day p.o.), 99% in the assay with anti-SRBC PFC response (25 mg/day p.o.) and 100% in the assay with anti-SRBC PFC response (50 mg/day p.o.). The results for the “PFC × 10^-3 / spleen” value with anti-SRBC PFC response (5 mg/day p.o.), in the assay on anti-SRBC PFC response (25 mg/day p.o.) and in the assay on anti-SRBC PFC response (50 mg/day p.o.) were 362 ± 123 PFC × 10^-3 / spleen, 4 ± 1 PFC × 10^-3 / spleen and 0 PFC × 10^-3 / spleen, respectively. For the same compound, in the assay with anti-SRBC PFC response (oral), the “immunosuppressive activity compared with mizoribine, in words” value is “more active than mizoribine”. Further, the “immunosuppressive activity in oral administration, in words” value in the assay on anti-SRBC PFC response (oral) was “potent activity in oral administration”. In addition, the “growth inhibitory activities on human tumor cell lines, in words” value in assay [9] is reported as “potent growth inhibitory activities”.

On to `NC(=O)c1nc[nH]c1O` [4-carbamoylimidazolium-5-olate], for which, in [1], the “immunosuppressive and antitumor activities, in words” value was “immunosuppressive and antitumor activities”.
